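Cultured in 96-well plates, cells were exposed to test compound for 48 hours across five concentrations. TGI marks complete inhibition of growth.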
How the values were obtained:
Assay in all cases: NCI-60 cell line screen, 48 h
786-0 renal = tested on: 786-0 renal
A549 NSCLC = tested on: A549 NSCLC
ACHN renal = tested on: ACHN renal
CAKI-1 renal = tested on: CAKI-1 renal
CCRF-CEM leukemia = tested on: CCRF-CEM leukemia
COLO 205 colon = tested on: COLO 205 colon
DLD-1 colon = tested on: DLD-1 colon
DMS 114 small cell lung = tested on: DMS 114 small cell lung
DMS 273 small cell lung = tested on: DMS 273 small cell lung
EKVX NSCLC = tested on: EKVX NSCLC
HCC-2998 colon = tested on: HCC-2998 colon
HCT-116 colon = tested on: HCT-116 colon
HCT-15 colon = tested on: HCT-15 colon
HL-60(TB) leukemia = tested on: HL-60(TB) leukemia
HOP-62 NSCLC = tested on: HOP-62 NSCLC
HOP-92 NSCLC = tested on: HOP-92 NSCLC
HT29 colon = tested on: HT29 colon
IGROV1 ovarian = tested on: IGROV1 ovarian
K-562 leukemia = tested on: K-562 leukemia
KM12 colon = tested on: KM12 colon
KM20L2 colon = tested on: KM20L2 colon
LOX IMVI melanoma = tested on: LOX IMVI melanoma
LXFL 529 NSCLC = tested on: LXFL 529 NSCLC
M14 melanoma = tested on: M14 melanoma
MALME-3M melanoma = tested on: MALME-3M melanoma
MOLT-4 leukemia = tested on: MOLT-4 leukemia
NCI-H226 lung = tested on: NCI-H226 lung
NCI-H460 lung = tested on: NCI-H460 lung
OVCAR-3 ovarian = tested on: OVCAR-3 ovarian
OVCAR-4 ovarian = tested on: OVCAR-4 ovarian
OVCAR-5 ovarian = tested on: OVCAR-5 ovarian
OVCAR-8 ovarian = tested on: OVCAR-8 ovarian
RPMI-8226 leukemia = tested on: RPMI-8226 leukemia
RXF 393 renal = tested on: RXF 393 renal
RXF-631 renal = tested on: RXF-631 renal
SF-295 CNS = tested on: SF-295 CNS
SK-MEL-2 melanoma = tested on: SK-MEL-2 melanoma
SK-MEL-28 melanoma = tested on: SK-MEL-28 melanoma
SK-MEL-5 melanoma = tested on: SK-MEL-5 melanoma
SK-OV-3 ovarian = tested on: SK-OV-3 ovarian
SN12C renal = tested on: SN12C renal
SNB-19 CNS = tested on: SNB-19 CNS
SNB-75 CNS = tested on: SNB-75 CNS
SNB-78 CNS = tested on: SNB-78 CNS
SW-620 colon = tested on: SW-620 colon
TK-10 renal = tested on: TK-10 renal
U251 CNS = tested on: U251 CNS
UACC-257 melanoma = tested on: UACC-257 melanoma
UACC-62 melanoma = tested on: UACC-62 melanoma
UO-31 renal = tested on: UO-31 renal
XF 498 CNS = tested on: XF 498 CNS
M19-MEL melanoma = tested on: M19-MEL melanoma
NCI-H23 lung = tested on: NCI-H23 lung
NCI-H522 lung = tested on: NCI-H522 lung
SF-268 CNS = tested on: SF-268 CNS
SF-539 CNS = tested on: SF-539 CNS
SR leukemia = tested on: SR leukemia

For `CCOC(=O)C(C(C)=O)C1CC=CC1` (configuration not stated), the TGI (786-0 renal) was > 100 µM, the TGI (A549 NSCLC) was > 100 µM and the TGI (ACHN renal) was > 100 µM. For the same compound, the TGI (CAKI-1 renal) was > 100 µM, the TGI (CCRF-CEM leukemia) was > 100 µM and the TGI (COLO 205 colon) was > 100 µM. For the same compound, the TGI (DLD-1 colon) was > 100 µM, the TGI (DMS 114 small cell lung) was > 100 µM and the TGI (DMS 273 small cell lung) was > 100 µM. For the same compound, the TGI (EKVX NSCLC) was > 100 µM, the TGI (HCC-2998 colon) was > 100 µM and the TGI (HCT-116 colon) was > 100 µM. For the same compound, the TGI (HCT-15 colon) was > 100 µM, the TGI (HL-60(TB) leukemia) was > 100 µM and the TGI (HOP-62 NSCLC) was > 100 µM. For the same compound, the TGI (HOP-92 NSCLC) was > 100 µM, the TGI (HT29 colon) was > 100 µM and the TGI (IGROV1 ovarian) was > 100 µM. The TGI (K-562 leukemia) was > 100 µM, the TGI (KM12 colon) was > 100 µM and the TGI (KM20L2 colon) was > 100 µM. The TGI (LOX IMVI melanoma) was > 100 µM, the TGI (LXFL 529 NSCLC) was > 100 µM and the TGI (M14 melanoma) was > 100 µM. For the same compound, the TGI (MALME-3M melanoma) was > 100 µM, the TGI (MOLT-4 leukemia) was > 100 µM and the TGI (NCI-H226 lung) was > 100 µM. The TGI (NCI-H460 lung) was > 100 µM, the TGI (OVCAR-3 ovarian) was > 100 µM and the TGI (OVCAR-4 ovarian) was > 100 µM. For the same compound, the TGI (OVCAR-5 ovarian) was > 100 µM, the TGI (OVCAR-8 ovarian) was > 100 µM and the TGI (RPMI-8226 leukemia) was > 100 µM. The TGI (RXF 393 renal) was > 100 µM, the TGI (RXF-631 renal) was > 100 µM and the TGI (SF-295 CNS) was > 100 µM. For the same compound, the TGI (SK-MEL-2 melanoma) was > 100 µM, the TGI (SK-MEL-28 melanoma) was > 100 µM and the TGI (SK-MEL-5 melanoma) was > 100 µM. For the same compound, the TGI (SK-OV-3 ovarian) was > 100 µM, the TGI (SN12C renal) was > 100 µM and the TGI (SNB-19 CNS) was > 100 µM. For the same compound, the TGI (SNB-75 CNS) was > 100 µM, the TGI (SNB-78 CNS) was > 100 µM and the TGI (SW-620 colon) was > 100 µM. For the same compound, the TGI (TK-10 renal) was > 100 µM, the TGI (U251 CNS) was > 100 µM and the TGI (UACC-257 melanoma) was > 100 µM. For the same compound, the TGI (UACC-62 melanoma) was > 100 µM, the TGI (UO-31 renal) was > 100 µM and the TGI (XF 498 CNS) was > 100 µM.

With `CC(=O)COC(=O)CC(C)=O` the TGI (786-0 renal) was > 100 µM, the TGI (A549 NSCLC) was > 100 µM and the TGI (ACHN renal) was > 100 µM. For the same compound, the TGI (CAKI-1 renal) was > 100 µM, the TGI (CCRF-CEM leukemia) was > 100 µM and the TGI (COLO 205 colon) was > 100 µM. For the same compound, the TGI (DLD-1 colon) was > 100 µM, the TGI (DMS 114 small cell lung) was > 100 µM and the TGI (DMS 273 small cell lung) was > 100 µM. The TGI (EKVX NSCLC) was > 100 µM, the TGI (HCC-2998 colon) was > 100 µM and the TGI (HCT-116 colon) was > 100 µM. For the same compound, the TGI (HCT-15 colon) was > 100 µM, the TGI (HL-60(TB) leukemia) was > 100 µM and the TGI (HOP-62 NSCLC) was > 100 µM. The TGI (HT29 colon) was > 100 µM, the TGI (IGROV1 ovarian) was > 100 µM and the TGI (K-562 leukemia) was > 100 µM. For the same compound, the TGI (KM12 colon) was > 100 µM, the TGI (KM20L2 colon) was > 100 µM and the TGI (LOX IMVI melanoma) was > 100 µM. For the same compound, the TGI (LXFL 529 NSCLC) was > 100 µM, the TGI (M14 melanoma) was > 100 µM and the TGI (M19-MEL melanoma) was > 100 µM. The TGI (MALME-3M melanoma) was > 100 µM, the TGI (MOLT-4 leukemia) was > 100 µM and the TGI (NCI-H226 lung) was > 100 µM. For the same compound, the TGI (NCI-H23 lung) was > 100 µM, the TGI (NCI-H460 lung) was > 100 µM and the TGI (NCI-H522 lung) was > 100 µM. The TGI (OVCAR-3 ovarian) was > 100 µM, the TGI (OVCAR-4 ovarian) was > 100 µM and the TGI (OVCAR-5 ovarian) was > 100 µM. The TGI (OVCAR-8 ovarian) was > 100 µM, the TGI (RPMI-8226 leukemia) was > 100 µM and the TGI (RXF 393 renal) was > 100 µM. The TGI (RXF-631 renal) was > 100 µM, the TGI (SF-268 CNS) was > 100 µM and the TGI (SF-295 CNS) was > 100 µM. For the same compound, the TGI (SF-539 CNS) was > 100 µM, the TGI (SK-MEL-2 melanoma) was > 100 µM and the TGI (SK-MEL-28 melanoma) was > 100 µM. The TGI (SK-OV-3 ovarian) was > 100 µM, the TGI (SN12C renal) was > 100 µM and the TGI (SNB-19 CNS) was > 100 µM. For the same compound, the TGI (SNB-75 CNS) was > 100 µM, the TGI (SR leukemia) was > 100 µM and the TGI (SW-620 colon) was > 100 µM. The TGI (TK-10 renal) was > 100 µM, the TGI (U251 CNS) was > 100 µM and the TGI (UACC-257 melanoma) was > 100 µM. For the same compound, the TGI (UACC-62 melanoma) was > 100 µM, the TGI (UO-31 renal) was > 100 µM and the TGI (XF 498 CNS) was > 100 µM.

In the case of `COC(=O)C1=C(C(=O)OC)C2(C)OC1C(=O)C21CC1` (configuration not stated), the TGI (786-0 renal) is reported as > 100 µM, the TGI (A549 NSCLC) is reported as > 100 µM and the TGI (ACHN renal) is reported as 41.6 µM. It also gave a TGI (CAKI-1 renal) of 44.1 µM, a TGI (CCRF-CEM leukemia) of 39.6 µM and a TGI (COLO 205 colon) of 56.5 µM. For the same compound, the TGI (DLD-1 colon) was 51.1 µM, the TGI (DMS 114 small cell lung) was 42.9 µM and the TGI (DMS 273 small cell lung) was 40.2 µM. For the same compound, the TGI (EKVX NSCLC) was > 100 µM, the TGI (HCC-2998 colon) was 53 µM and the TGI (HCT-116 colon) was 43.4 µM. For the same compound, the TGI (HCT-15 colon) was 44.6 µM, the TGI (HL-60(TB) leukemia) was 39.6 µM and the TGI (HOP-62 NSCLC) was > 100 µM. For the same compound, the TGI (HT29 colon) was 37 µM, the TGI (IGROV1 ovarian) was 57.7 µM and the TGI (K-562 leukemia) was 69.1 µM. For the same compound, the TGI (KM12 colon) was > 100 µM, the TGI (KM20L2 colon) was 65.7 µM and the TGI (LOX IMVI melanoma) was 45.3 µM. The TGI (LXFL 529 NSCLC) was 35.1 µM, the TGI (M14 melanoma) was 34.9 µM and the TGI (M19-MEL melanoma) was > 100 µM. For the same compound, the TGI (MALME-3M melanoma) was 70.6 µM, the TGI (MOLT-4 leukemia) was 44.9 µM and the TGI (NCI-H226 lung) was > 100 µM. It also gave a TGI (NCI-H23 lung) of 51.2 µM, a TGI (NCI-H460 lung) of 63.5 µM and a TGI (NCI-H522 lung) of 25.9 µM. For the same compound, the TGI (OVCAR-3 ovarian) was 55.8 µM, the TGI (OVCAR-4 ovarian) was 25.1 µM and the TGI (OVCAR-5 ovarian) was > 100 µM. For the same compound, the TGI (OVCAR-8 ovarian) was 52.8 µM, the TGI (RPMI-8226 leukemia) was 42.7 µM and the TGI (RXF 393 renal) was 32.3 µM. The TGI (RXF-631 renal) was 36.1 µM, the TGI (SF-268 CNS) was > 100 µM and the TGI (SF-295 CNS) was > 100 µM. The TGI (SF-539 CNS) was 41.5 µM, the TGI (SK-MEL-2 melanoma) was > 100 µM and the TGI (SK-MEL-5 melanoma) was > 100 µM. The TGI (SK-OV-3 ovarian) was > 100 µM, the TGI (SN12C renal) was 43.4 µM and the TGI (SNB-19 CNS) was > 100 µM. For the same compound, the TGI (SNB-75 CNS) was 99.7 µM, the TGI (SR leukemia) was 44.6 µM and the TGI (SW-620 colon) was 38.6 µM. The TGI (U251 CNS) was > 100 µM, the TGI (UACC-257 melanoma) was > 100 µM and the TGI (UO-31 renal) was > 100 µM. It also gave a TGI (XF 498 CNS) of 26.5 µM.

Reference: PubChem BioAssay (NCI)
